Measured values taken from patent publication US10059689B2, “Substituted heteroaryl compounds and methods of use” (Sunshine Lake Pharma Co., Ltd., priority 2014, dated 2018).

How the values were obtained:
[1] = Compound stability in human liver microsomes; format: in vitro ADME; conditions: for half-life: pH 7.4, 37° C., NADPH, read-out: Human T1/2; for CLint scaled: pH 7.4, in vivo CLint extrapolated
Description: (§1) Human or rat liver microsomes incubations were conducted in duplicate in polypropylene tubes. The typical incubation mixtures consisted of human or rat liver microsomes (0.5 mg protein/mL), compounds of interest (5 μM) and NADPH (1.0 mM) in a total volume of 200 μL potassium phosphate buffer (PBS, 100 mM, pH 7.4). Compounds were dissolved in DMSO and diluted with PBS such that the final concentration of DMSO was 0.05%. The enzymatic reactions were commenced with the addition of protein after a 3-min preincubation and incubated in a water bath open to the air at 37° C. Reactions were terminated at various time points (0, 5, 10, 15, 30, 60 min) by adding equal volume of ice-cold acetonitrile. The samples were stored at −80° C. until LC/MS/MS assays.
(§2) The concentrations of compounds in the incubation mixtures of human or rat liver microsomes were determined by a LC/MS/MS method. The ranges of the linearity in the concentration range were determined for each tested compounds.
(§3) A parallel incubation was performed using denatured microsomes as the negative control, and reactions were terminated at various time points (0, 15, 60 min) after incubation at 37° C.
(§4) Verapamil (1 μM) was selected as the positive control, and reactions were terminated at various time points (0, 5, 10, 15, 30, 60 min) after incubation at 37° C. Both positive and negative control samples were included in each assay to ensure the integrity of the microsomal incubation system.
(§5) In addition, the stability date of compound in human and rat liver microsomes was also obtained through the following method. Human or rat liver microsomes incubations were conducted in duplicate in polypropylene tubes. The typical incubation mixtures consisted of human or rat liver microsomes (0.5 mg protein/mL), compounds of interest (1.5 μM) and EDTA (1.0 mM) in a total volume of 30 μL potassium phosphate buffer (PBS, 100 mM, pH 7.4). Compounds were dissolved in DMSO and diluted with PBS such that the final concentration of DMSO was 0.2%. The enzymatic reactions were commenced with the addition of 15 μL NADPH (final concentration: 2 mM) after a 10-min preincubation and incubated in a water bath open to the air at 37° C. Reactions were terminated at various time points (0, 15, 30, 60 min) by adding 135 μL acetonitrile (contain IS). The samples were centrifuged at 4000 rpm for 10 min to remove protein, the supernatant was stored at −80° C. until LC/MS/MS assays. Ketanserin (1 μM) was selected as the positive control, and reactions were terminated at various time points (0, 15, 30, 60 min) after incubation at 37° C. Both positive and negative control samples were included in each assay to ensure the integrity of the microsomal incubation system.
(§6) The concentrations of compounds in human or rat liver microsome incubations were plotted as a percentage of the relevant zero time point control for each reaction. The in vivo CLint were extrapolated (ref.: Naritomi, Y.; Terashita, S.; Kimura, S.; Suzuki, A.; Kagayama, A.; and Sugiyama, Y.; Prediction of human hepatic clearance from in vivo animal experiments and in vitro metabolic studies with liver microsomes from animals and humans. Drug Metab. Dispos., 2001, 29: 1316-1324).

[2] = Compound stability in rat liver microsomes; format: in vitro ADME; conditions: for half-life: pH 7.4, 37° C., NADPH, read-out: Rat T1/2; for CLint scaled: pH 7.4, in vivo CLint extrapolated
Description: as §1, §2, §3, §4, §5, §6

[3] = Pharmacokinetics after intravenous and oral administration in rats; format: in vivo; conditions: for clearance (CL) / AUC(0-t) / half-life / Vd: iv dosing, 1 mg/kg; for F: oral bioavailability; for AUC(0-t) / half-life / Vd: rat, plasma; for Vd: read-out: Vss
Description: The LC/MS/MS system used in the analysis consists of an Agilent 1200 Series vacuum degasser, binary pump, well-plate autosampler, thermostatted column compartment, the Agilent G6430 Triple Quadrupole Mass Spectrometer with an electrosprayionization (ESI) source. Quantitative analysis was carried out using MRM mode. The parameters for MRM transitions are in the Table A.
An Agilent XDB-C18, 2.1×30 mm, 3.5 μM column was used for the analysis. 5 μL of the samples were injected. Analysis condition: The mobile phase was 0.1% formic acid in water (A) and 0.1% formic acid in methanol (B). The flow rate was 0.4 mL/min. And the gradient of Mobile phase was in the Table B.
Alternatively, an Agilent 6330 series LC/MS/MS spectrometer equipped with G1312A binary pumps, a G1367A autosampler and a G1314C UV detector were used in the analysis. An ESI source was used on the LC/MS/MS spectrometer. The analysis was done in positive ion mode as appropriate and the MRM transition for each analyte was optimized using standard solution. A Capcell MP-C18 100×4.6 mm I.D., […] column (Phenomenex, Torrance, Calif., USA) was used during the analysis. The mobile phase was 5 mM ammonia acetate, 0.1% MeOH in water (A): 5 mM ammonia acetate, 0.1% MeOH in acetonitrile (B) (70:30, v/v). The flow rate was 0.6 mL/min. Column was maintained at ambient temperature. 20 μL of the samples were injected.
The compounds disclosed herein are assessed in pharmacokinetic studies in mice, rats, dogs or monkeys. The compounds are administered as a water solution, 2% HPMC+1% TWEEN®80 in water solution, 5% DMSO+5% solutol in saline, 4% MC suspension or capsule. For the intravenous administration, the animals are generally given at 1 or 2 mg/kg dose. For the oral (p.o.) dosing, mice and rats are generally given 5 or 10 mg/kg dose, and dogs and monkeys are generally given 10 mg/kg dose. The blood samples (0.3 mL) are drawn at 0.25, 0.5, 1.0, 2.0, 3.0, 4.0, 6.0, 8.0, 12 and 24 h time points or 0.083, 0.25, 0.5, 1.0, 2.0, 4.0, 6.0, 8.0 and 24 h time points and centrifuged at 3,000 or 4000 rpm for 2 to 10 min. The plasma solutions are collected, and stored at −20° C. or −70° C. until analyzed by LC/MS/MS as described above.

JAK1 (h) = target: T1, JAK1 (h) (Homo sapiens, UniProt P23458); test: JAK1 (h) kinase assay; format: biochemical
T1 construct: purchased Millipore UK Ltd (contract assay service)
T1 sequence (P23458 whole entry): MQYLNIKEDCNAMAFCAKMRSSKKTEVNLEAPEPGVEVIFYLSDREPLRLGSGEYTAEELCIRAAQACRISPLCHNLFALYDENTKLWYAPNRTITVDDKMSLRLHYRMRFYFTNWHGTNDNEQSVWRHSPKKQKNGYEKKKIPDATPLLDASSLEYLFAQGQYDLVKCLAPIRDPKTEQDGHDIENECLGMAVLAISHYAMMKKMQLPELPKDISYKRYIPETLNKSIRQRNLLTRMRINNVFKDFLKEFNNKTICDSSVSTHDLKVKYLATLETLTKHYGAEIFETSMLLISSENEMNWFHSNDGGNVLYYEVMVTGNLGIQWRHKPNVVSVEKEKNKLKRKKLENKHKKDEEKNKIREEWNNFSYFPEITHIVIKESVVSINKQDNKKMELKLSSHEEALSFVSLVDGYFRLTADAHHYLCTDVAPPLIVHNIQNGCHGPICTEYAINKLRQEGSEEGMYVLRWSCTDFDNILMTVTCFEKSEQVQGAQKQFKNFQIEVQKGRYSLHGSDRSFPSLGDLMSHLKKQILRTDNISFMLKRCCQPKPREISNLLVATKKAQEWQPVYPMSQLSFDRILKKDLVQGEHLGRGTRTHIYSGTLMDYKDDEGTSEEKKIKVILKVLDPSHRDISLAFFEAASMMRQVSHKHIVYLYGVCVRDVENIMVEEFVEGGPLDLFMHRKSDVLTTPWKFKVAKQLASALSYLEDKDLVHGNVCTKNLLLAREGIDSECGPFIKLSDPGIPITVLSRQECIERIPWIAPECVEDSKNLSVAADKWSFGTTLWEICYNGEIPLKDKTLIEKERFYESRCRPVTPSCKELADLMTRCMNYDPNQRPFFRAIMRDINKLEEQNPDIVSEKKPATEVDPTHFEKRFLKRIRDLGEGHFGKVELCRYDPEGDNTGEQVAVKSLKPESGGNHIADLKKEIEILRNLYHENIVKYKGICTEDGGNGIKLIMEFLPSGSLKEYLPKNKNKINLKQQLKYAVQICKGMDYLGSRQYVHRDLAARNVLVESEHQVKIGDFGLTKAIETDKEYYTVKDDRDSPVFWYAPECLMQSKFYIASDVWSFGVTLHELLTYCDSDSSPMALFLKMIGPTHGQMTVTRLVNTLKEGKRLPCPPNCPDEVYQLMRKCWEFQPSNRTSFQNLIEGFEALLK
Description: The above assay procedure can be used to determine the IC50 for inhibition and/or the inhibition constant, Ki. The IC50 is defined as the concentration of compound required to reduce the enzyme activity by 50% under the condition of the assay. The IC50 value is estimated by preparing a 10 point curve using a ½ log dilution series (for example, a typical curve may be prepared using the following compound concentrations: 3 μM, 1 μM, 0.3 μM, 0.1 μM, 0.03 μM, 0.01 μM, 0.003 μM, 0.001 μM, 0.0003 μM and 0 μM).
JAK1 (h) is incubated with 20 mM Tris/HCl pH 7.5, 0.2 mM EDTA, 500 μM GEEPLYWSFPAKKK, 10 mM MgAcetate and [γ-^33P-ATP] (specific activity approx. 500 cpm/pmol, concentration as required). The reaction is initiated by the addition of the MgATP mix. After incubation for 40 minutes at room temperature, the reaction is stopped by the addition of 3% phosphoric acid solution. 10 μL of the reaction is then spotted onto a P30 filtermat and washed three times for 5 minutes in 75 mM phosphoric acid and once in methanol prior to drying and scintillation counting.
The kinase assays described herein were performed at Millipore UK Ltd, Dundee Technology Park, Dundee DD2 1SW, UK.

Compound	half-life [1] [min]	CLint scaled [1] [mL/min/kg]	half-life [2] [min]	CLint scaled [2] [mL/min/kg]	clearance (CL) [3] [mL/min/kg]	F [3] [%]	AUC(0-t) [3] [ng·h/mL]	half-life [3] [min]	Vd [3] [L/kg]	IC50 (JAK1 (h)) [nM]
CCC1CN(c2ccc(C#N)nn2)CCC1N(C)c1nc(Nc2ccc3c(C)n(C)nc3c2)ncc1Cl (stereo not drawn) [Ex. 19, 6-(4-((5-chloro-2-((2,3-dimethyl-2H-indazol-6-yl)amino)pyrimidin-4-yl)(methyl)amino)-3-ethylpiperidin-1-yl)pyridazine-3-carbonitrile]	10.5	165	6.55	379	43.8	23.4	381	27	1.4	–
CCC1CN(c2ccc(C#N)nn2)CCC1Nc1nc(Nc2ccc3c(C)n(C)nc3c2)ncc1Cl (stereo not drawn) [Ex. 17, 6-(4-((5-chloro-2-((2,3-dimethyl-2H-indazol-6-yl)amino)pyrimidin-4-yl)amino)-3-ethylpiperidin-1-yl)pyridazine-3-carbonitrile]	11.1	156	3.81	652	18.3	36.0	911	40.2	0.45	–
Cc1c2ccc(Nc3ncc(Cl)c(N(C)C4CCN(c5ccc(C#N)cn5)CC4)n3)cc2nn1C [Ex. 8, 6-(4-((5-chloro-2-((2,3-dimethyl-2H-indazol-6-yl)amino)pyrimidin-4-yl) (methyl)amino)piperidin-1-yl)nicotinonitrile]	–	–	–	–	–	–	–	–	–	3
CCC1CN(c2ccc(C#N)cn2)CCC1N(C)c1nc(Nc2cc(C)n(C)n2)ncc1Cl (stereo not drawn) [Ex. 18, 6-(4-((5-chloro-2-((1,5-dimethyl-1H-pyrazol-3-yl)amino)pyrimidin-4-yl) (methyl)amino)-3-ethylpiperidin-1-yl)nicotinonitrile]	22.9	75.9	37.6	66.1	23.7	66.8	663	109	2.88	–
CCC1CN(c2ccc(C#N)cn2)CCC1Nc1nc(Nc2cn(C)nc2C)ncc1Cl (stereo not drawn) [Ex. 16, 6-(4-((5-chloro-2-((1,3-dimethyl-1H-pyrazol-4-yl)amino)pyrimidin-4-yl)amino)-3-ethylpiperidin-1-yl)nicotinonitrile]	3.94	442	6.85	363	23.3	60.9	722	39.6	0.96	–
CCC1CN(c2ccc(C#N)cn2)CCC1N(C)c1nc(Nc2ccc3c(C)n(C)nc3c2)ncc1Cl (stereo not drawn) [Ex. 20, 6-(4-((5-chloro-2-((2,3-dimethyl-2H-indazol-6-yl)amino)pyrimidin-4-yl)(methyl)amino)-3-ethylpiperidin-1-yl)nicotinonitrile]	26	66.9	15	166	18.3	30.4	881	90	1.9	–

More lines, now with the values ahead:

half-life [1] [min]	CLint scaled [1] [mL/min/kg]	half-life [2] [min]	CLint scaled [2] [mL/min/kg]	clearance (CL) [3] [mL/min/kg]	F [3] [%]	AUC(0-t) [3] [ng·h/mL]	half-life [3] [min]	Vd [3] [L/kg]	IC50 (JAK1 (h)) [nM]	Compound
15.5	112	20.4	121	6.83	31.0	2430	81	0.84	–	CCC1CN(c2ccc(C#N)cn2)CCC1Nc1nc(Nc2ccc3c(C)n(C)nc3c2)ncc1Cl (stereo not drawn) [Ex. 23]
17.9	97.3	38.8	64	6.83	106.1	2320	93.6	0.81	–	CCC1CN(c2ccc(C#N)cn2)CCC1Nc1nc(Nc2cc(C)n(C)n2)ncc1Cl (stereo not drawn) [Ex. 21, 6-(4-((5-chloro-2-((1,5-dimethyl-1H-pyrazol-3-yl)amino)pyrimidin-4-yl)amino)-3-ethylpiperidin-1-yl)nicotinonitrile]
25.7	67.6	20.8	120	14	62.8	1220	28.2	0.33	< 0.3	Cn1cc2ccc(Nc3ncc(Cl)c(NC4CCN(c5ccc(C#N)nn5)CC4)n3)cc2n1 [Ex. 25]
6.4	272	7.12	349	–	–	–	–	–	–	Cc1c2ccc(Nc3ncc(Cl)c(N(C)C4CCN(c5ccc(C#N)nn5)CC4)n3)cc2nn1C [Ex. 24]
62.6	27.8	45.5	54.6	33.2	62.7	512	39.6	1.66	–	CCC1CN(c2ccc(C#N)nn2)CCC1Nc1ccnc(Nc2cc(C)n(C)n2)n1 (stereo not drawn) [Ex. 22, 6-(4-((2-((1,5-dimethyl-1H-pyrazol-3-yl)amino)pyrimidin-4-yl)amino)-3-ethylpiperidin-1-yl)pyridazine-3-carbonitrile]
